{
  "source": "patent EP0452067A2",
  "about": "“Oligosaccharide compounds and preparation thereof” (GENZYME CORPORATION, priority 1990, dated 1991)",
  "key": {"Pancreatic Amylase": {"biological_target": "T1, Pancreatic Amylase (Homo sapiens, UniProt P04746)", "T1 sequence (P04746 16-511)": "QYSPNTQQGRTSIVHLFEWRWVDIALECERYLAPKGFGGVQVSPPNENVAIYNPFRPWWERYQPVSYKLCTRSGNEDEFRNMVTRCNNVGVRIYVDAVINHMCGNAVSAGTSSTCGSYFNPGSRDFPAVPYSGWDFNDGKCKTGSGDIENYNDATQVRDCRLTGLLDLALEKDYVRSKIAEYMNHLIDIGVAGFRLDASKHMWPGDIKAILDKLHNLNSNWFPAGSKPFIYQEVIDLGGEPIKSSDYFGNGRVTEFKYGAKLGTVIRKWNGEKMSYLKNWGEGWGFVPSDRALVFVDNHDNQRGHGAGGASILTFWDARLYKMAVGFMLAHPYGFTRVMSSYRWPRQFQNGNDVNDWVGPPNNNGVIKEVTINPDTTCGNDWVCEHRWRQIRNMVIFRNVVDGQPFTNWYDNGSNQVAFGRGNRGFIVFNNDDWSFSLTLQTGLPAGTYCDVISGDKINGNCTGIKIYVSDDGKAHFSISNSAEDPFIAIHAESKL", "experiment": "Cleavage pattern of substrates on hydrolysis with pancreatic amylase"}, "[1]": {"tested_on": "pancreatic and salivary α-amylase", "experiment": "Cleavage pattern, both amylases", "format": "biochemical", "conditions": "range over pancreatic and salivary α-amylase"}, "α-amylase": {"tested_on": "α-amylase", "experiment": "Determination of kinetic and binding values of α-amylase substrates", "format": "biochemical", "conditions": "for Km: 50 mM PIPES pH 7.0, 50 mM NaCl, 5 mM CaCl₂, glucoamylase and maltase, 27°C, corrected for contaminating unblocked substrate", "description": "All reactions were carried out in 50 mM PIPES buffer (pH 7.0) containing 50 mM NaCl, 5 mM CaCl₂, 10 units glucoamylase and 25 units maltase at 27°C. Each substrate concentration was run in duplicate and at least eight concentrations were examined for each substrate. Data from the reaction progress curves were fit to the Michaelis-Menten equation using Marquardt analysis. The Km values were corrected for contaminating unblocked substrate. The values V and K for the G₇ substrates are the average of two experiments. The error in the kinetic parameters from each experiment was less than 5% from the average reported."}},
  "data": [
    {"smiles": "CC(C)(C)[Si](C)(C)OC[C@H]1O[C@H](O[C@H]2[C@H](O)[C@@H](O)[C@@H](O[C@H]3[C@H](O)[C@@H](O)[C@@H](O[C@H]4[C@H](O)[C@@H](O)[C@@H](O[C@H]5[C@H](O)[C@@H](O)[C@@H](O[C@H]6[C@H](O)[C@@H](O)[C@@H](O[C@H]7[C@H](O)[C@@H](O)[C@@H](Oc8ccc([N+](=O)[O-])cc8)O[C@@H]7CO)O[C@@H]6CO)O[C@@H]5CO)O[C@@H]4CO)O[C@@H]3CO)O[C@@H]2CO)[C@H](O)[C@@H](O)[C@@H]1O", "note": "[Substrate 1, 6-0-t-butyldimethylsilyl-4-nitrophenyl-α-D-maltoheptaoside]", "values": [
      {"measurement": "Cleavage Position (% of total) G 1/2", "setting": "Pancreatic Amylase", "value": "1.1 % of total"},
      {"measurement": "Cleavage Position (% of total) G 2/3", "setting": "Pancreatic Amylase", "value": "13.3 % of total"},
      {"measurement": "Cleavage Position (% of total) G 3/4", "setting": "Pancreatic Amylase", "value": "65.6 % of total"},
      {"measurement": "Cleavage Position (% of total) G 4/5", "setting": "Pancreatic Amylase", "value": "19.9 % of total"},
      {"measurement": "Total Hydrolysis (%)", "setting": "Pancreatic Amylase", "value": 69.9, "unit": "%"},
      {"measurement": "cleaved between glucoses 3 and 4", "setting": "[1]", "value": "66 - 67%"},
      {"measurement": "Vmax, faster than the Bz-G₇-PNP", "setting": "α-amylase; relative to Bz-G₇-PNP", "value": 46, "unit": "%"}
    ]},
    {"smiles": "O=[N+]([O-])c1ccc(O[C@H]2O[C@H](CO)[C@@H](O[C@H]3O[C@H](CO)[C@@H](O[C@H]4O[C@H](CO)[C@@H](O[C@H]5O[C@H](CO)[C@@H](O[C@H]6O[C@H](CO)[C@@H](O[C@H]7O[C@H](CO)[C@@H](O[C@H]8O[C@@H]9COC(c%10ccccc%10)O[C@H]9[C@H](O)[C@H]8O)[C@H](O)[C@H]7O)[C@H](O)[C@H]6O)[C@H](O)[C@H]5O)[C@H](O)[C@H]4O)[C@H](O)[C@H]3O)[C@H](O)[C@H]2O)cc1", "note": "(stereo partly drawn) [Substrate 2, 4,6-0-benzylidene-4-nitrophenyl-α-D-maltoheptaoside]", "values": [
      {"measurement": "Cleavage Position (% of total) G 1/2", "setting": "Pancreatic Amylase", "value": "4.0 % of total"},
      {"measurement": "Cleavage Position (% of total) G 2/3", "setting": "Pancreatic Amylase", "value": "63.1 % of total"},
      {"measurement": "Cleavage Position (% of total) G 3/4", "setting": "Pancreatic Amylase", "value": "18.9 % of total"},
      {"measurement": "Cleavage Position (% of total) G 5/6", "setting": "Pancreatic Amylase", "value": "13.6 % of total"},
      {"measurement": "Total Hydrolysis (%)", "setting": "Pancreatic Amylase", "value": 15.1, "unit": "%"},
      {"measurement": "cleaved between glucoses 2 and 3", "setting": "[1]", "value": "63 - 74%"},
      {"measurement": "Km", "setting": "α-amylase", "value": 92, "unit": "µM"}
    ]},
    {"smiles": "CC(C)(C)[Si](C)(C)OC[C@H]1O[C@H](O[C@H]2[C@H](O)[C@@H](O)[C@@H](O[C@H]3[C@H](O)[C@@H](O)[C@@H](O[C@H]4[C@H](O)[C@@H](O)[C@@H](O[C@H]5[C@H](O)[C@@H](O)[C@@H](Oc6ccc([N+](=O)[O-])cc6)O[C@@H]5CO)O[C@@H]4CO)O[C@@H]3CO)O[C@@H]2CO)[C@H](O)[C@@H](O)[C@@H]1O", "note": "[Substrate 3, 6-0-t-butyldimethylsilyl-4-nitrophenyl-α-D-maltopentaoside]", "values": [
      {"measurement": "Cleavage Position (% of total) G 1/2", "setting": "Pancreatic Amylase", "value": "59.4 % of total"},
      {"measurement": "Cleavage Position (% of total) G 2/3", "setting": "Pancreatic Amylase", "value": "40.6 % of total"},
      {"measurement": "Total Hydrolysis (%)", "setting": "Pancreatic Amylase", "value": 31.6, "unit": "%"},
      {"measurement": "cleaved between glucose units 1-2", "setting": "[1]", "value": "40 - 60%"},
      {"measurement": "cleaved between glucoses 2 and 3", "setting": "[1]", "value": "40 - 60%"},
      {"measurement": "Km", "setting": "α-amylase", "value": 87, "unit": "µM"},
      {"measurement": "V/K greater than that of the Bz-G₅-PNP", "setting": "α-amylase; relative to Bz-G₅-PNP", "value": 19, "unit": "%"}
    ]},
    {"smiles": "O=[N+]([O-])c1ccc(O[C@H]2O[C@H](CO)[C@@H](O[C@H]3O[C@H](CO)[C@@H](O[C@H]4O[C@H](CO)[C@@H](O[C@H]5O[C@H](CO)[C@@H](O[C@H]6O[C@@H]7COC(c8ccccc8)O[C@H]7[C@H](O)[C@H]6O)[C@H](O)[C@H]5O)[C@H](O)[C@H]4O)[C@H](O)[C@H]3O)[C@H](O)[C@H]2O)cc1", "note": "(stereo partly drawn) [Substrate 4, 4,6-0-benzylidene-4-nitrophenyl-α-D-maltopentaoside]", "values": [
      {"measurement": "Cleavage Position (% of total) G 1/2", "setting": "Pancreatic Amylase", "value": "2.5 % of total"},
      {"measurement": "Cleavage Position (% of total) G 2/3", "setting": "Pancreatic Amylase", "value": "19.4 % of total"},
      {"measurement": "Cleavage Position (% of total) G 3/4", "setting": "Pancreatic Amylase", "value": "78.1 % of total"},
      {"measurement": "Total Hydrolysis (%)", "setting": "Pancreatic Amylase", "value": 42.9, "unit": "%"},
      {"measurement": "cleaved between glucoses 3 and 4", "setting": "[1]", "value": "78 - 84%"},
      {"measurement": "Km", "setting": "α-amylase", "value": 183, "unit": "µM"}
    ]}
  ]
}
